According to US4808572A, “α-Hydroxy thioethers” (Ciba-Geigy Corporation, priority 1985, dated 1989):
pIC50: −log10 of the molar value.

What was measured:
[1] = biological target: phospholipase A2 from human leucocytes; assay: In vitro inhibition of phospholipase A2 obtained from human leucocytes; assay type: biochemical; conditions: enzyme from human neutrophilic polymorphonuclear leucocytes, 14C-oleic acid labelled E. coli phospholipids, 37°, 1 hour, pH 7
Procedure: Human neutrophilic polymorphonuclear leucocytes are isolated from "buffy coats" by multistage fractional sedimentation and are deep-frozen. Phospholipase A2 is extracted from the cell suspension by homogenisation with the addition of ice-cold 0.36N H2 SO4 in 2N NaCl, and the supernatant obtained after centrifugation at 10,000×g is dialysed against sodium acetate buffer pH 4.5.
In order to determine the enzyme activity, enzyme (10-30 μg protein) is incubated at 37° for 1 hour in 0.1M tris/HCl buffer pH 7 with the addition of 1 mM CaCl2 and substrate consisting of phospholipids (2 μM) of Escherichia coli that have been radioactively labelled with ^14 C-oleic acid by means of biosynthesis. The reaction is stopped by the addition of Dole reagent (isopropanol/heptane/1N H2 SO4 40:10:1, v/v) and the ^14 C-oleic acid selectively released by phospholipase A2 is extracted. Substrate also extracted at the same time is completely removed by filtering the extract through a column of silica gel. The ^14 C-oleic acid in the eluate is determined by radiometry.
In order to ascertain the inhibitory action of test substances on phospholipase A2, these substances are added in the form of solutions in water, dimethyl sulphoxide (final concentration in the mixture up to 5% v/v) or ethanol (final concentration in the mixture up to 2.5% v/v) to the incubation mixture. […]

[2] = biological target: phospholipase C from human thrombocytes; assay: In vitro inhibition of phospholipase C obtained from human thrombocytes; assay type: biochemical; conditions: enzyme from human thrombocytes, phosphatidyl-[14C]-inositol, 37°, 5 minutes, pH 6
Procedure: Human thrombocytes are obtained from "buffy coats" by fractional centrifugation and then deep frozen.
To ascertain the enzyme activity, enzyme (20-100 μg protein) is incubated at 37° for 5 minutes in 0.025M tris/malate buffer pH 6 with the addition of 0.2 mM CaCl2 and 0.02 mM radioactively labelled substrate, phosphatidyl-[^14 C]-inositol. The reaction is stopped by extraction by shaking with CHCl3 /CH3 OH 2:1 (v/v). In the course of this operation unconsumed substrate is extracted into the organic phase, whilst the reaction product, ^14 C-inositol phosphate, remains in the aqueous phase and can be measured by radiometry of an aliquot.
In order to ascertain the inhibitory action of test substances on phospholipase C, these substances are added in the form of solutions in water, dimethyl sulphoxide (final concentration in the mixture up to 5%, v/v) or ethanol (final concentration in the mixture up to 2.5%, v/v) to the incubation mixture. The strength of action of the test substances is expressed by the IC50, that is to say the concentration that causes a 50% inhibition of the control activity. The IC50 is ascertained on a graph by plotting the percentage inhibition on the ordinate against the log of the concentration (μM) on the abscissa.

Q: How did the pIC50 [1] turn out when `CCN(CC)CCCC(C)Nc1c2ccc(Cl)cc2nc2ccc(OC)cc12` (centres unmarked) [mepacrine] was run?
A: 2.80

Q: And the pIC50 [2]?
A: 4.70
